US11001569B2, “6-membered heteroaromatic substituted cyanoindoline derivatives as NIK inhibitors” (Janssen Pharmaceutica NV, priority 2016, dated 2021)
Where two headings read alike, the source gives them in different places.

Tests used:
[1] = tested on: KMS12-BM (NIK WT) multiple myeloma cells; experiment: Antiproliferative activity on KMS12-BM multiple myeloma cells (CellTiter-Glo); assay type: cell-based, human; conditions: 96 hr treatment, averaged values, read-out: KMS-12 Proliferation inhibition (IC50 (nM))
Summary of the method: (§1)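 Cells plated at 15000 (JJN3) or 20000 (KMS12BM) per well and treated 96 h at 37° C, 5% CO2, final DMSO 0.3%, 9-point 1:3 dilutions. Viability by CellTiter-Glo luminescence; time-zero blank subtracted, growth expressed as percent of untreated control.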

[2] = tested on: JJN-3 (NIK translocated) multiple myeloma cells; experiment: Antiproliferative activity on JJN-3 multiple myeloma cells (CellTiter-Glo); assay type: cell-based, human; conditions: JJN-3 (NIK translocated) cells, 96 hr treatment, averaged values, read-out: JJN-3 Proliferation inhibition (IC50 (nM))
Summary of the method: as §1

[3] = target: recombinant human NF-kappaB-inducing Kinase (NIK/MAP3K14) (Homo sapiens, UniProt Q99558); experiment: Inhibition of auto-phosphorylation of recombinant human NIK/MAP3K14 activity (AlphaScreen); assay type: biochemical; conditions: 25 microM ATP, averaged over all measurements on all batches
[4] = tested on: P-IKKα levels in L363 (NIK translocated multiple myeloma) cells; experiment: Effect of compounds on P-IKKα levels in L363 cells (Mesoscale sandwich immuno-assay); assay type: cell-based, human; conditions: 2 hr treatment, averaged values, read-out: Inhibition of pIKKα_L-363 (IC50 (nM))
Summary of the method: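 BAFF-stimulated (1 μg/ml stock) L363 cells preincubated 24 hr at 37° C, then treated 2 hr with compound (final 1% DMSO, 8-point 1:3 dilutions). Lysate P-IKKα measured by Mesoscale sandwich immunoassay; IC50 from sigmoidal fit of % inhibition versus log concentration.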

Chain of recombinant human NF-kappaB-inducing Kinase (NIK/MAP3K14) (Q99558 whole entry): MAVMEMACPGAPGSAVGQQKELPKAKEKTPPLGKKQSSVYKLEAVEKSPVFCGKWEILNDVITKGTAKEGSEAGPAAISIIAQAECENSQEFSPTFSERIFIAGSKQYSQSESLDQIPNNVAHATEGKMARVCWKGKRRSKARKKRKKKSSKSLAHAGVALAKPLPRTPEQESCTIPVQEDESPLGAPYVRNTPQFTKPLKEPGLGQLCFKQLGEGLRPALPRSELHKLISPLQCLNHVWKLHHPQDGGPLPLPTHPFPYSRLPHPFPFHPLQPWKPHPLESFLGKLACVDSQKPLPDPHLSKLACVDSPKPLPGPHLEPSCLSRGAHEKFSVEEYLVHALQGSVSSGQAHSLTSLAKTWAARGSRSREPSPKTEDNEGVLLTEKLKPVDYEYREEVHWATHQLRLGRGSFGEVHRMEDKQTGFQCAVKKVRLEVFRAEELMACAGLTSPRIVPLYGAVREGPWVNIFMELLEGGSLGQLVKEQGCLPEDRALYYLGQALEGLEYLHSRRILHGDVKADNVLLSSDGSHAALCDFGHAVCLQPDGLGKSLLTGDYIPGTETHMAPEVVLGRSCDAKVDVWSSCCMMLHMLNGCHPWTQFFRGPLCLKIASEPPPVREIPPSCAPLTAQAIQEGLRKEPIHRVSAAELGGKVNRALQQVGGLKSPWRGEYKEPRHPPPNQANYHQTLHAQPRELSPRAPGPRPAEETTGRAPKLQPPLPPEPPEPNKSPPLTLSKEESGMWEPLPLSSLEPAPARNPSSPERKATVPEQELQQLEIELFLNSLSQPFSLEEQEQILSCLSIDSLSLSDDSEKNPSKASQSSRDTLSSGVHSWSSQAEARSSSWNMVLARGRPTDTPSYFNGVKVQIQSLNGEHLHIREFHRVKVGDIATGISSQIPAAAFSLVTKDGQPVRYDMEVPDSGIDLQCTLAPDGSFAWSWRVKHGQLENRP

SMILES	IC50 ([1]; Homo sapiens, KMS-12-BM, 96 h)	melting point	IC50 ([2]; Homo sapiens, JJN-3, 96 h)	IC50 [3]	IC50 ([4]; Homo sapiens, L-363, 2 h)	IC50 [1]	IC50 [2]	IC50 [4]
COc1nc(C)c(Nc2nccc(-c3cc(C#N)c4c(c3)[C@@](C)(CO)CN4)n2)cc1C [Compound 168]	> 10000 nM	260 °C	39 nM	3 nM	2.4 nM	–	–	–
CN(C)C(=O)Cn1cc(Cl)cc(Nc2nccc(-c3cc(C#N)c4c(c3)[C@@](C)(CO)CN4)n2)c1=O [Compound 11i]	> 10000 nM	299 °C	~1120 nM	1.9 nM	3.2 nM	–	–	–
Cc1cc(Nc2nccc(-c3cc(C#N)c4c(c3)[C@@](C)(CO)CN4)n2)c(=O)n(CCN2CC(F)C2)c1 [Compound 1i]	3890 nM	149 °C	347 nM	1.1 nM	2.6 nM	–	–	–
Cc1cnc(CCNC2CC2)c(Nc2nccc(-c3cc(C#N)c4c(c3)[C@@](C)(CO)CN4)n2)c1 [Compound 182]	> 10000 nM	156 °C	49 nM	15.1 nM	110 nM	–	–	–
CNC(=O)c1cnc(C)c(Nc2nccc(-c3cc(C#N)c4c(c3)[C@@](C)(CO)CN4)n2)c1 [Compound 93]	9550 nM	165 °C	1440 nM	2.1 nM	5.6 nM	–	–	–
COc1nc(-c2cnn(C)c2)c(C)cc1Nc1nccc(-c2cc(C#N)c3c(c2)[C@@](C)(CO)CN3)n1 [Compound 91]	> 10000 nM	166 °C	81 nM	8.9 nM	5.4 nM	–	–	–
Cc1cc(Nc2nccc(-c3cc(C#N)c4c(c3)[C@@](C)(CO)CN4)n2)c(=O)n(CCN2CC(C)NC(C)C2)c1 (stereo partly shown) [Compound 16i]	> 10000 nM	232 °C	25 nM	1.2 nM	11 nM	–	–	–
COCCOc1ncc(F)cc1Nc1nccc(-c2cc(C#N)c3c(c2)[C@@](C)(CO)CN3)n1 [Compound 61]	> 10000 nM	186 °C	389 nM	3 nM	19.5 nM	–	–	–
Cc1cnc(OC2CCN(C)CC2F)c(Nc2nccc(-c3cc(C#N)c4c(c3)[C@@](C)(CO)CN4)n2)c1 (stereo partly shown) [Compound 155]	–	220 °C	–	12 nM	–	~2880 nM	81 nM	19.5 nM
Cc1nc(/C=C/C(=O)N(C)C)ccc1Nc1nccc(-c2cc(C#N)c3c(c2)[C@@](C)(CO)CN3)n1 [Compound 73]	~234 nM	231 °C	144 nM	1.6 nM	~13 nM	–	–	–
C[C@]1(CO)CNc2c(C#N)cc(-c3ccnc(Nc4cc(C#N)cnc4OCC4CC4)n3)cc21 [Compound 74]	> 10000 nM	206 °C	141 nM	16.2 nM	~120 nM	–	–	–
Cc1cc(Nc2nccc(-c3cc(C#N)c4c(c3)[C@@](C)(CO)CN4)n2)c(=O)n(CCN2CC(F)(F)C2)c1 [Compound 17i]	> 10000 nM	190 °C	33 nM	1.9 nM	1.8 nM	–	–	–
Cc1cc(Nc2nccc(-c3cc(C#N)c4c(c3)[C@@](C)(CO)CN4)n2)c(=O)n(Cc2nccn2C2CC2)c1 [Compound 6i]	5130 nM	194 °C	275 nM	1 nM	10 nM	–	–	–
CN1CCCC(COc2ncc(Cl)cc2Nc2nccc(-c3cc(C#N)c4c(c3)[C@@](C)(CO)CN4)n2)C1 (single isomer, unassigned) [Compound 56]	–	126 °C	–	3.5 nM	–	~148 nM	7 nM	~7240 nM
COCCNc1nc(OC)c(Nc2nccc(-c3cc(C#N)c4c(c3)C(C)(CO)CN4)n2)cc1Cl (stereo not shown) [Compound 2]	> 10000 nM	230 °C	74 nM	13.2 nM	21.4 nM	–	–	–
COc1nc(CCC(=O)N(C)C)ccc1Nc1nccc(-c2cc(C#N)c3c(c2)[C@@](C)(CO)CN3)n1 [Compound 49]	~9330 nM	195 °C	35 nM	1.6 nM	0.8 nM	–	–	–
Cc1cc(Nc2nccc(-c3cc(C#N)c4c(c3)[C@@](C)(CO)CN4)n2)c(=O)n(CC(C)N2CCOCC2)c1 (mixture of isomers) [Compound 18i]	> 10000 nM	208 °C	49 nM	0.9 nM	4.9 nM	–	–	–
CN(C)C(=O)/C=C/c1ccc(Nc2nccc(-c3cc(C#N)c4c(c3)[C@@](C)(CO)CN4)n2)c(CCC2CC2)n1 [Compound 88]	> 10000 nM	198 °C	148 nM	4.2 nM	22.4 nM	–	–	–
COc1ncc(C(F)(F)F)cc1Nc1nccc(-c2cc(C#N)c3c(c2)[C@@](C)(CO)CN3)n1 [Compound 183]	> 10000 nM	209 °C	63 nM	15.8 nM	40.7 nM	–	–	–
Cc1cnc(OC2CN(C)CC2F)c(Nc2nccc(-c3cc(C#N)c4c(c3)[C@@](C)(CO)CN4)n2)c1 (stereo partly shown) [Compound 154]	–	185 °C	–	7.2 nM	–	~7940 nM	148 nM	3 nM
C[C@]1(CO)CNc2c(C#N)cc(-c3ccnc(Nc4cc(F)cn(CCN5CCOCC5)c4=O)n3)cc21 [Compound 3i]	> 10000 nM	252 °C	~1780 nM	1.3 nM	3.3 nM	–	–	–
Cc1cc(Nc2nccc(-c3cc(C#N)c4c(c3)[C@@](C)(CO)CN4)n2)c(C)nc1OCC1COC1 [Compound 160]	> 10000 nM	189 °C	115 nM	3.9 nM	2.1 nM	–	–	–
COc1cnc(C)cc1Nc1nccc(-c2cc(C#N)c3c(c2)[C@@](C)(CO)CN3)n1 [Compound 162]	> 10000 nM	> 260 °C	60 nM	3 nM	1.3 nM	–	–	–
Cc1cc(Nc2nccc(-c3cc(C#N)c4c(c3)[C@@](C)(CO)CN4)n2)c(=O)n(CC(C)N2CCOCC2)c1 (single isomer, unassigned) [Compound 23i]	–	136 °C	–	2.3 nM	–	> 10000 nM	30 nM	2.9 nM
CC1(COc2ncc(C#N)cc2Nc2nccc(-c3cc(C#N)c4c(c3)[C@@](C)(CO)CN4)n2)COC1 [Compound 76]	> 10000 nM	162 °C	> 10000 nM	5.1 nM	26.9 nM	–	–	–
CCCCc1ncc(C#N)cc1Nc1nccc(-c2cc(C#N)c3c(c2)[C@@](C)(CO)CN3)n1 [Compound 66]	> 10000 nM	178 °C	41 nM	3.3 nM	~141 nM	–	–	–
CCCc1ncc(C#N)cc1Nc1nccc(-c2cc(C#N)c3c(c2)[C@@](C)(CO)CN3)n1 [Compound 63]	> 10000 nM	193 °C	98 nM	2.9 nM	17.4 nM	–	–	–
Cc1ncc(C2CCN(C)CC2)cc1Nc1nccc(-c2cc(C#N)c3c(c2)[C@@](C)(CO)CN3)n1 [Compound 164]	1660 nM	121 °C	1180 nM	102 nM	1180 nM	–	–	–
CN(C)CCn1cc(Cl)cc(Nc2nccc(-c3cc(C#N)c4c(c3)[C@@](C)(CO)CN4)n2)c1=O [Compound 12i]	813 nM	198 °C	18 nM	1.1 nM	0.9 nM	–	–	–
